Reference: publication PMC3842230 (Biochemistry, 2013)

System: Escherichia coli BL21 Δ7 cells
Assay: cells
Assay type: cell-based
Settings: BL21, 5 h, read-out: IC50 (toxic to cell growth)

## COc1cccc2c1C(=O)c1c(O)c3c(c(O)c1C2=O)C[C@@](O)(C(=O)CO)C[C@@H]3O[C@H]1C[C@H](N)[C@H](O)[C@H](C)O1 [Doxorubicin, doxorubicin]
  IC50: ~1000 nM
